Source: patent US20250235543A1, “MODIFIED PROTEINS AND PROTEIN DEGRADERS” (Cullgen (Shanghai), Inc., priority 2021, published 2025)

Experiments:
Assay type in all cases: cell-based
cyclin D1 = assay: Cyclin D1 degradation in parental and DDB1 knockout Hs578T cells; conditions: dose range, 4 hours
Protocol: Parental and DDB1 knockout Hs578T cells were treated with a dose range of CPD-031 for 4 hours (FIG. 5C).
The procedures for CRISPR-Cas9 mediated knock-out followed the previously published protocols (Ran et al., 2013). The sgRNA targeting human DDB1 (sgRNA sequence: […]) (SEQ ID NO: 1) was designed using the online CRISPR Design Tool (chopchop.cbu.uib.no/), and constructed into CRISPR-Cas9 vector, pLentiCRISPR V2 (Addgene #52961). Lentivirus was produced in HEK293T cells by co-transfecting pLentiCRISPR construct with packing vectors. Hs578T cells stably expressing Cas9 enzyme and sgRNA were established by lentivirus transduction, selected, and maintained in medium containing […] puromycin.
Cultured cells were washed with cold PBS once and lysed in cold RIPA buffer supplemented with protease inhibitors and phosphatase inhibitors (Beyotime Biotechnology). The solutions were then incubated at 4° C. for 30 min with gentle agitation to fully lysed cells. Cell lysates were centrifuged at 13,000 rpm for 10 min at 4° C. and pellets were discarded. Total protein concentrations in the lysates were determined following BCA assays (Beyotime Biotechnology). Cell lysates were mixed with Laemmli loading buffer and heated at 99° C. for 5 min. […] Protein bands were quantitated using the Image Lab software provided by Bio-Rad.

MDA-MB-468 = assay: Cell viability assay, MDA-MB-468; conditions: Homo sapiens, 72 h; MDA-MB-468, TNBC, 3 days; read-out: Cellular Anti-proliferation activity (IC50)
Protocol: Cells were treated with CDK4/6 inhibitors palbociclib, ribociclib, or abemaciclib, or heterobifunctional compounds CPD-002 or CPD-031 following a 9-point serial dilution for 3 days.
Cells were seeded at a density of 2,000-5,000 cells per well in 96-well assay plates and treated with test compounds following a 10-point serial dilution for 3-6 days. Cell viability was determined using the CellTiter-Lumi assay kit according to the manufacturer's instructions. The dose-response curves were determined and IC50 values were calculated using the GraphPad Prism software following a nonlinear regression (least squares fit) method. Data presented was mean±standard deviation (SD) unless otherwise indicated.

[1] = system: cyclin D1, cyclin D2, cyclin D3, CDK4 and CDK6; assay: Immunoblotting of cyclin D and CDK4/6 protein levels in BT-549 cells; conditions: indicated concentrations, 16 hours
Protocol: Calu-1 (FIG. 2A) or BT-549 (FIG. 2B) cells were treated with CPD-002, CPD-004, or palbociclib at indicated concentrations for 16 hours.
Cultured cells were washed with cold PBS once and lysed in cold RIPA buffer supplemented with protease inhibitors and phosphatase inhibitors (Beyotime Biotechnology). The solutions were then incubated at 4° C. for 30 min with gentle agitation to fully lysed cells. Cell lysates were centrifuged at 13,000 rpm for 10 min at 4° C. and pellets were discarded. Total protein concentrations in the lysates were determined following BCA assays (Beyotime Biotechnology). Cell lysates were mixed with Laemmli loading buffer and heated at 99° C. for 5 min. Proteins were resolved on SDS-PAGE and visualized using Western ECL Substrate kits on a ChemiDoc MP Imaging system (Bio-Rad). Protein bands were quantitated using the Image Lab software provided by Bio-Rad.

CDK4, CDK6 = assay: Immunoblot of CDK4 and CDK6 protein levels in Calu-1 cells; conditions: 500 nM CPD-002
Protocol: Specific exemplary heterobifunctional compounds were characterized in Calu-1, BT-549 and other cells. Cells that express cyclin D1-3 and CDK4/6 proteins were treated with heterobifunctional compounds disclosed herein at indicated concentrations for 16 hours. Cells were collected, lysed and subject to immunoblotting using an antibody specific to cyclin D1, cyclin D2, cyclin D3, CDK4, CDK6 or phosphorylated R^b proteins. Tubulin or GAPDH was used as the loading control. DMSO treatment was used as the negative control.
In a time-course study, Calu-1 cells were treated with 500 nM CPD-002, or 100 nM CPD-031 for indicated period of time prior to immunoblotting (FIG. 4A-4B).
To verify that heterobifunctional compound-mediated degradation is dependent on the binding to CDK4-cyclin D complex, we designed three negative control compounds, CPD-042, CPD-049 and CPD-380, which are derived from CPD-002 CPD-031 and CPD-343, respectively. These three control compounds bear the same DDB1 ligand and linker as their corresponding active heterobifunctional compounds but with modified warheads to impair the binding of the control compounds to CDK4. […] Two cereblon (CRBN)-recruiting reference heterobifunctional compounds, CP-10 (Su, J Med Chem, 2019; CAS No.: 2366268-80-4) and BSJ-03-123 (Brand, Cell Chem Biol, 2019; CAS No.: 2361493-16-3) were analyzed in Calu-1 cells.

IC50 (MDA-MB-468) [nM]	Structure (SMILES)	cyclin D1 degradation in DDB1 knockout versus parental cells (cyclin D1)	cyclin D1, cyclin D2, cyclin D3, CDK4 and CDK6 protein levels [1]	degradation of CDK4 and CDK6 relative to cyclin D, time-course (CDK4, CDK6)
	CC(=O)c1c(C)c2cnc(Nc3ccc(N4CCN(CC(=O)NCCOCCOCCOCCOCCOCCNc5ccc(C(=O)Nc6nc(C)c(C)s6)c(C)c5)CC4)cn3)nc2n(C2CCCC2)c1=O [CPD-031, 4-((1-(4-(6-((6-Acetyl-8-cyclopentyl-5-methyl-7-oxo-7,8-dihydropyrido[2,3-d]pyrimidin-2-yl)amino)pyridin-3-yl)piperazin-1-yl)-2-oxo-6,9,12,15,18-pentaoxa-3-azaicosan-20-yl)amino)-N-(4,5-dimethylthiazol-2-yl)-2-methylbenzamide]	partially compromised by depletion of DDB1 E3 ligase		
1480	CC(=O)c1c(C)c2cnc(Nc3ccc(N4CCN(CC(=O)NCCOCCOCCOCCOCCOCCNc5ccc(C(=O)Nc6ncc(C)s6)c(C)c5)CC4)cn3)nc2n(C2CCCC2)c1=O [CPD-002, 4-((1-(4-(6-((6-Acetyl-8-cyclopentyl-5-methyl-7-oxo-7,8-dihydropyrido[2,3-d]pyrimidin-2-yl)amino)pyridin-3-yl)piperazin-1-yl)-2-oxo-6,9,12,15,18-pentaoxa-3-azaicosan-20-yl)amino)-2-methyl-N-(5-methylthiazol-2-yl)benzamide]		reduced cyclin D1, cyclin D2, cyclin D3, CDK4 and CDK6 protein levels in a concentration-dependent manner	occurred much slower
